# Measurements reported in ChEMBL document CHEMBL1201861, “Genomics of Drug Sensitity in Cancer screening data, Wellcome Trust Sanger Institute”.
# Experiments:
# COLO-741 = assay: cells; format: functional, cell-based, Homo sapiens
# Description: SANGER: Inhibition of human COLO-741 cell growth in a cell viability assay.
# Ca-Ski = assay: cells; format: functional, cell-based, Homo sapiens;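 note: cell viability assay measuring inhibition of Ca-Ski cell growth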
# Description: SANGER: Inhibition of human Ca-Ski cell growth in a cell viability assay.
# Detroit 562 = assay: cells; format: functional, cell-based, Homo sapiens;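 note: growth inhibition of human Detroit 562 cells, read out by a cell viability assay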
# Description: SANGER: Inhibition of human Detroit562 cell growth in a cell viability assay.
# DoTc2-4510 = assay: cells; format: functional, cell-based, Homo sapiens
# GAMG = assay: cells; format: functional, cell-based, Homo sapiens;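 note: cell growth inhibition measured by a viability assay in the GAMG human cell line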
# Description: SANGER: Inhibition of human GAMG cell growth in a cell viability assay.
# HCC70 = assay: cells; format: functional, cell-based, Homo sapiens;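 note: cell viability assay measuring how strongly the compound suppresses proliferation of HCC70 cells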
# Description: SANGER: Inhibition of human HCC70 cell growth in a cell viability assay.
# HPAF-II = assay: cells; format: functional, cell-based, Homo sapiens;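 note: growth inhibition of HPAF-II cells, read out with a cell viability assay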
# Description: SANGER: Inhibition of human HPAF-II cell growth in a cell viability assay.
# HSC-2 = assay: cells; format: functional, cell-based, Homo sapiens;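 note: growth inhibition of human HSC-2 cells, read out by a cell viability assay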
# Description: SANGER: Inhibition of human HSC-2 cell growth in a cell viability assay.
# KYSE-140 = assay: cells; format: functional, cell-based, Homo sapiens;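 note: cell viability assay measuring growth inhibition in human KYSE-140 cells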
# Description: SANGER: Inhibition of human KYSE-140 cell growth in a cell viability assay.
# LN-405 = assay: cells; format: functional, cell-based, Homo sapiens
# Description: SANGER: Inhibition of human LN-405 cell growth in a cell viability assay.
# MDA-MB-415 = assay: cells; format: functional, cell-based, Homo sapiens
# MFE-280 = assay: cells; format: functional, cell-based, Homo sapiens;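 note: growth inhibition of MFE-280 cells, determined with a cell viability readout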
# Description: SANGER: Inhibition of human MFE-280 cell growth in a cell viability assay.
# MIA PaCa-2 = assay: cells; format: functional, cell-based, Homo sapiens;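 note: growth inhibition of MIA PaCa-2 cells, read out with a cell viability assay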
# Description: SANGER: Inhibition of human MIA-PaCa-2 cell growth in a cell viability assay.
# MeWo = assay: cells; format: functional, cell-based, Homo sapiens;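 note: growth inhibition of MeWo cells, determined by a cell viability readout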
# Description: SANGER: Inhibition of human Mewo cell growth in a cell viability assay.
# NCI-H2170 = assay: cells; format: functional, cell-based, Homo sapiens;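 note: cell viability assay measuring growth inhibition of human NCI-H2170 cancer cells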
# Description: SANGER: Inhibition of human NCI-H2170 cell growth in a cell viability assay.
# NCI-H2228 = assay: cells; format: functional, cell-based, Homo sapiens;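 note: growth inhibition of human NCI-H2228 cells, read out by a cell viability assay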
# Description: SANGER: Inhibition of human NCI-H2228 cell growth in a cell viability assay.
# NCI-H520 = assay: cells; format: functional, cell-based, Homo sapiens;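 note: growth inhibition of NCI-H520 cells, measured by a cell viability assay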
# Description: SANGER: Inhibition of human NCI-H520 cell growth in a cell viability assay.
# NCI-H596 = assay: cells; format: functional, cell-based, Homo sapiens;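 note: growth inhibition of NCI-H596 cells, read out with a cell viability assay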
# Description: SANGER: Inhibition of human NCI-H596 cell growth in a cell viability assay.
# NCI-H650 = assay: cells; format: functional, cell-based, Homo sapiens;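 note: growth inhibition of NCI-H650 cells, read out by a viability assay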
# Description: SANGER: Inhibition of human NCI-H650 cell growth in a cell viability assay.
# SK-MES-1 = assay: cells; format: functional, cell-based, Homo sapiens;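 note: growth inhibition of human SK-MES-1 cells, read out with a cell viability assay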
# Description: SANGER: Inhibition of human SK-MES-1 cell growth in a cell viability assay.
# SW1573 = assay: cells; format: functional, cell-based, Homo sapiens;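 note: growth inhibition of SW1573 cells, read out with a cell viability assay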
# Description: SANGER: Inhibition of human SW1573 cell growth in a cell viability assay.
# SW1783 = assay: cells; format: functional, cell-based, Homo sapiens
# Description: SANGER: Inhibition of human SW1783 cell growth in a cell viability assay.
# SW626 = assay: cells; format: functional, cell-based, Homo sapiens;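 note: growth inhibition of SW626 cells, measured with a cell viability assay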
# Description: SANGER: Inhibition of human SW626 cell growth in a cell viability assay.
# T84 = assay: cells; format: functional, cell-based, Homo sapiens;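 note: growth inhibition measured with a cell viability readout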
# Description: SANGER: Inhibition of human T84 cell growth in a cell viability assay.
# 647-V = assay: cells; format: functional, cell-based, Homo sapiens;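 note: growth inhibition of 647-V cells, read out with a cell viability assay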
# Description: SANGER: Inhibition of human 647-V cell growth in a cell viability assay.
# 786-0 = assay: cells; format: functional, cell-based, Homo sapiens
# Description: SANGER: Inhibition of human 786-0 cell growth in a cell viability assay.
# 8305C = assay: cells; format: functional, cell-based, Homo sapiens
# Description: SANGER: Inhibition of human 8305C cell growth in a cell viability assay.
# A549 = assay: cells; format: functional, cell-based, Homo sapiens; settings: Homo sapiens, A549;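 note: growth inhibition of A549 cells, read out with a cell viability assay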
# Description: SANGER: Inhibition of human A549 cell growth in a cell viability assay.
# TYK-nu = assay: cells; format: functional, cell-based, Homo sapiens;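 note: growth inhibition of human TYK-nu cells, read out by a cell viability assay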
# Description: SANGER: Inhibition of human TYK-nu cell growth in a cell viability assay.
# UMC-11 = assay: cells; format: functional, cell-based, Homo sapiens;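 note: growth inhibition of UMC-11 cells, read out with a cell viability assay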
# Description: SANGER: Inhibition of human UMC-11 cell growth in a cell viability assay.
# VMRC-RCZ = assay: cells; format: functional, cell-based, Homo sapiens
# Description: SANGER: Inhibition of human VMRC-RCZ cell growth in a cell viability assay.
# WM-115 = assay: cells; format: functional, cell-based, Homo sapiens
# Description: SANGER: Inhibition of human WM-115 cell growth in a cell viability assay.
# CAPAN-1 = assay: cells; format: functional, cell-based, Homo sapiens;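 note: growth suppression of CAPAN-1 cells, read out by a cell viability assay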
# Description: SANGER: Inhibition of human CAPAN-1 cell growth in a cell viability assay.
# CHL-1 = assay: cells; format: functional, cell-based, Homo sapiens;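 note: cell growth inhibition, read out with a cell viability assay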
# Description: SANGER: Inhibition of human CHL-1 cell growth in a cell viability assay.
# COLO-679 = assay: cells; format: functional, cell-based, Homo sapiens
# Description: SANGER: Inhibition of human COLO-679 cell growth in a cell viability assay.
# G-361 = assay: cells; format: functional, cell-based, Homo sapiens; settings: g-361
# HCT-15 = assay: cells; format: functional, cell-based, Homo sapiens; settings: hct-15;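 note: cell viability readout, IC50 reflecting suppression of HCT-15 cell growth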
# Description: SANGER: Inhibition of human HCT-15 cell growth in a cell viability assay.
# L-540 = assay: cells; format: functional, cell-based, Homo sapiens; settings: l-540;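 note: growth inhibition of the human L-540 cell line, read out with a viability assay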
# Description: SANGER: Inhibition of human L-540 cell growth in a cell viability assay.
# NCCIT = assay: SANGER: Inhibition of human NCCIT cell growth in a cell viability assay.; format: functional, cell-based; settings: nccit
# NCI-H1694 = assay: cells; format: functional, cell-based, Homo sapiens; settings: nci-h1694;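 note: cell viability assay measuring inhibition of growth in human NCI-H1694 cells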
# Description: SANGER: Inhibition of human NCI-H1694 cell growth in a cell viability assay.
# NCI-H1882 = assay: cells; format: functional, cell-based, Homo sapiens; settings: nci-h1882;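 note: growth inhibition of the cell line, determined with a viability assay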
# Description: SANGER: Inhibition of human NCI-H1882 cell growth in a cell viability assay.
# NCI-H1963 = assay: cells; format: functional, cell-based, Homo sapiens; settings: nci-h1963;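 note: cell growth inhibition of the human line, determined with a cell viability assay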
# Description: SANGER: Inhibition of human NCI-H1963 cell growth in a cell viability assay.
# NCI-H524 = assay: cells; format: functional, cell-based, Homo sapiens; settings: nci-h524;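 note: growth inhibition of human NCI-H524 cells, read out through a cell viability assay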
# Description: SANGER: Inhibition of human NCI-H524 cell growth in a cell viability assay.
# NCI-H716 = assay: cells; format: functional, cell-based, Homo sapiens; settings: nci-h716;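 note: growth inhibition of human NCI-H716 cells, measured by a cell viability assay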
# Description: SANGER: Inhibition of human NCI-H716 cell growth in a cell viability assay.
# OPM-2 = assay: cells; format: functional, cell-based, Homo sapiens; settings: opm-2;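 note: growth of OPM-2 cells measured with a viability assay, IC50 for suppression of proliferation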
# Description: SANGER: Inhibition of human OPM-2 cell growth in a cell viability assay.
# SK-MEL-28 = assay: cells; format: functional, cell-based, Homo sapiens; settings: sk-mel-28;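 note: growth inhibition of human SK-MEL-28 cells, read out with a cell viability assay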
# Description: SANGER: Inhibition of human SK-MEL-28 cell growth in a cell viability assay.
# SK-MM-2 = assay: cells; format: functional, cell-based, Homo sapiens; settings: sk-mm-2;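 note: growth inhibition of human SK-MM-2 cells, read out with a cell viability assay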
# Description: SANGER: Inhibition of human SK-MM-2 cell growth in a cell viability assay.
# SNU-C1 = assay: cells; format: functional, cell-based, Homo sapiens; settings: snu-c1;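 note: growth inhibition of SNU-C1 human cells, read out by a cell viability assay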
# Description: SANGER: Inhibition of human SNU-C1 cell growth in a cell viability assay.
molecule,measurement,setting,value
Cn1cnc2c(F)c(Nc3ccc(Br)cc3Cl)c(C(=O)NOCCO)cc21 [SELUMETINIB],IC50,"COLO-741; Homo sapiens, COLO-741",0.531 µM
same,IC50,"Ca-Ski; Homo sapiens, Ca-Ski",> 4 µM
same,IC50,"Detroit 562; Homo sapiens, Detroit 562",> 4 µM
same,IC50,"DoTc2-4510; Homo sapiens, DoTc2-4510",> 4 µM
same,IC50,"GAMG; Homo sapiens, GAMG",> 4 µM
same,IC50,"HCC70; Homo sapiens, HCC70",> 4 µM
same,IC50,"HPAF-II; Homo sapiens, HPAF-II",3.34 µM
same,IC50,"HSC-2; Homo sapiens, HSC-2",> 4 µM
same,IC50,"KYSE-140; Homo sapiens, KYSE-140",> 4 µM
same,IC50,"LN-405; Homo sapiens, LN-405",> 4 µM
same,IC50,"MDA-MB-415; Homo sapiens, MDA-MB-415",> 4 µM
same,IC50,"MFE-280; Homo sapiens, MFE-280",> 4 µM
same,IC50,"MIA PaCa-2; Homo sapiens, MIA PaCa-2",0.898 µM
same,IC50,"MeWo; Homo sapiens, MeWo",0.521 µM
same,IC50,"NCI-H2170; Homo sapiens, NCI-H2170",> 4 µM
same,IC50,"NCI-H2228; Homo sapiens, NCI-H2228",> 4 µM
same,IC50,"NCI-H520; Homo sapiens, NCI-H520",> 4 µM
same,IC50,"NCI-H596; Homo sapiens, NCI-H596",> 4 µM
same,IC50,"NCI-H650; Homo sapiens, NCI-H650",> 4 µM
same,IC50,"SK-MES-1; Homo sapiens, SK-MES-1",> 4 µM
same,IC50,"SW1573; Homo sapiens, SW1573",> 4 µM
same,IC50,"SW1783; Homo sapiens, SW1783",> 4 µM
same,IC50,"SW626; Homo sapiens, SW626",> 4 µM
same,IC50,"T84; Homo sapiens, T84",> 4 µM
same,IC50,"647-V; Homo sapiens, 647-V",> 4 µM
same,IC50,786-0; Homo sapiens,> 4 µM
same,IC50,"8305C; Homo sapiens, 8305C",> 4 µM
same,IC50,A549,0.214 µM
same,IC50,"TYK-nu; Homo sapiens, TYK-nu",> 4 µM
same,IC50,"UMC-11; Homo sapiens, UMC-11",> 4 µM
same,IC50,"VMRC-RCZ; Homo sapiens, VMRC-RCZ",> 4 µM
same,IC50,"WM-115; Homo sapiens, WM-115",0.268 µM
same,IC50,"CAPAN-1; Homo sapiens, CAPAN-1",> 4 µM
same,IC50,"CHL-1; Homo sapiens, CHL-1",> 4 µM
same,IC50,"COLO-679; Homo sapiens, COLO-679",0.341 µM
BLEOMYCIN,IC50,COLO-741; colo-741,16.4 µM
same,IC50,Ca-Ski; ca-ski,0.798 µM
same,IC50,Detroit 562; detroit 562,11.9 µM
same,IC50,DoTc2-4510; dotc2-4510,0.378 µM
same,IC50,G-361,0.0883 µM
same,IC50,GAMG; gamg,0.289 µM
same,IC50,HCC70; hcc70,126 µM
same,IC50,HCT-15,0.0951 µM
same,IC50,HPAF-II; hpaf-ii,233 µM
same,IC50,HSC-2; hsc-2,2.47 µM
same,IC50,KYSE-140; kyse-140,3.9 µM
same,IC50,L-540,23.5 µM
same,IC50,LN-405; ln-405,402 µM
same,IC50,MDA-MB-415; mda-mb-415,67.3 µM
same,IC50,MFE-280; mfe-280,359 µM
same,IC50,MIA PaCa-2; mia paca-2,0.111 µM
same,IC50,MeWo; mewo,148 µM
same,IC50,NCCIT,1.07 µM
same,IC50,NCI-H1694,43.9 µM
same,IC50,NCI-H1882,11.5 µM
same,IC50,NCI-H1963,193 µM
same,IC50,NCI-H2170; nci-h2170,0.162 µM
same,IC50,NCI-H2228; nci-h2228,0.955 µM
same,IC50,NCI-H520; nci-h520,16.1 µM
same,IC50,NCI-H524,190 µM
same,IC50,NCI-H596; nci-h596,13.6 µM
same,IC50,NCI-H650; nci-h650,0.000587 µM
same,IC50,NCI-H716,1420 µM
same,IC50,OPM-2,104 µM
same,IC50,SK-MEL-28,1860 µM
same,IC50,SK-MES-1; sk-mes-1,3.07 µM
same,IC50,SK-MM-2,23.2 µM
same,IC50,SNU-C1,82 µM
same,IC50,SW1573; sw1573,0.137 µM
same,IC50,SW1783; sw1783,0.249 µM
same,IC50,SW626; sw626,1.41 µM
same,IC50,T84; t84,13.5 µM
same,IC50,647-V; 647-v,1.73 µM
same,IC50,786-0,0.0808 µM
same,IC50,8305C; 8305c,0.804 µM
same,IC50,TYK-nu; tyk-nu,3.03 µM
same,IC50,UMC-11; umc-11,2360 µM
same,IC50,VMRC-RCZ; vmrc-rcz,2.69 µM
same,IC50,WM-115; wm-115,7.09 µM
same,IC50,CAPAN-1; capan-1,2.92 µM
same,IC50,CHL-1; chl-1,0.732 µM
same,IC50,COLO-679; colo-679,2.66 µM
